Data published in patent US4363812A, “3-(Tetrazol-5-yl), 4-methyl-8-alkoxy coumarins and anti-allergic compositions thereof” (priority 1978, dated 1982).
Where a name gives a salt, the structure may show the parent alone. Read-outs that look alike come from different tables or passages of the source.

What was measured:
[1] = tested on: passive cutaneous anaphylaxis (PCA) mediated by homocytotropic antibodies (HTA); test: passive cutaneous anaphylaxis (PCA) test, oral, in rats; format: in vivo, rat (Wistar); conditions: for minimal effective dose: Rattus norvegicus
Experimental: With respect to the present 3-(1H-tetrazol-5-yl)coumarin derivatives, there was tested antiallergic activity concerning passive cutaneous anaphylaxis (PCA) mediated by homocytotropic antibodies (HTA) in rats.
(i) Preparation of antisera
2,4-Dinitrophenyl-coupled ascaris extract (DNP-As) used as antigen, was prepared according to the methods of Strejan et al [cf. J. Immunol., Vol. 98, 893(1967)] and Eisen [cf. J. Amer. Chem. Soc., Vol. 75. 4593(1953)]. Antisera containing HTA were prepared in rats according to the method of Tada and Okumura [cf. J. Immunol., Vol. 106, 1002(1971)] as follows:
Female wister rats weighing 180 to 200 g. were splenectomized and several days later immunized by injecting into all four footpads a total of 1 mg. of DNP-As mixed with 10^10 Bordetella pertussis. After 5 days, 0.5 mg. of DNP-As alone was injected subcutaneously into the back of rats. Eight days after the first immunization, blood was collected by aortic puncture under ether anaesthesea and antisera obtained by these procedures were pooled and stored at -80° C.
The titer of the pooled autiserum was determined in rats by the 72 hr. PCA which method was described in the following item (ii), i.e. the highest dilution of antiserum producing a diameter of approximately 5 mm. was usually 1:500.
(ii) Assessment of PCA in rats
Normal wister rats weighing 140 to 160 g. were sensitized passively by injection intradermal on the shaved back skin 0.05 ml. of the diluted antisera (1:30). After 72 hours, the animals were injected intravenously 1 ml. of physiological salt solution containing 2 mg. DNP-As and 2.5 mg. Evans' blue.
The present compounds to be tested were given orally 30 minutes before antigen challenge. The animals were exsanguinated 30 minutes after challenge with the antigens and the skins were exfoliated. The intensities of PCA were evaluated by measuring the amount of leaked dye. The amount of dye leaked as a result of PCA was extracted according to the method of Harada et al [cf. Jpn. J. Allergol., Vol. 15, 1(1966)] and measured photometrically.

[2] = acute toxicity, oral, in mice; format: in vivo; conditions: mouse, in vivo, po
Experimental: (§1) Moreover, the introduction of substituent groups such as an alkoxyl group, an alkenyloxy group and hydroxyl group to the 5, 6, 7 or 8 position of the coumarin ring brings the decrease of toxicity.
(§2) With respect to the present 3-(1H-tetrazol-5-yl)coumarin derivatives, there was tested acute toxicity in mice.
(§3) After normal female Slc: ddy mice 4 weeks old were purchased and fed preliminarily in this lavoratory for a week, these mice weighing 25-27 g. were used in the test. The present compounds to be tested, were suspended in a 10% gum arabic solution and administered orally […]. body weight to mice. Each dose level was given to a group of ten animals and the survivors were kept under observation for 6 days. The numbers of dead animals were counted and the LD50 values in mg./kg. body weight were calculated by the method of Litchfield-Wilcoxon.

[3] = antiallergic activity (general statement); conditions: compared with coumarin derivatives of Japanese Publication No. 64273/1975
mice = test: acute toxicity, oral, in mice; format: in vivo; conditions: Table 4; oral, female Slc: ddy mice, 6 days observation, Litchfield-Wilcoxon; 8640 min
Experimental: as §1, §2, §3

[4] = Table 3, oral 30 minutes before antigen challenge, rats, lowest dose significantly decreasing leaked dye vs control, read-out: MED (minimum effect dose)
[5] = Table 4, oral, female Slc: ddy mice, 6 days observation, Litchfield-Wilcoxon, read-out: LD50
[6] = po, read-out: MED (minimum effective dose)
[7] = LD50 (50% lethal dose), Table 1, orally in mice

Row | Structure (SMILES) | minimal effective dose [1, 4] | LD50 at 144 h [2, 5] | also measured
1 | CC(C)=CCCC(C)=CCCC(C)=CCOc1cccc2cc(-c3nnn[nH]3)c(=O)oc12 [Example 18, 8-Farnesyloxy-3-(1H-tetrazol-5-yl)coumarin] | 6.25 mg/kg | 1000 to 2000 mg/kg | 
2 | CCCCCCCCCCCCCCCOc1cccc2cc(-c3nnn[nH]3)c(=O)oc12 [Example 14, 8-n-Pentadecyloxy-3-(1H-tetrazol-5-yl)coumarin] | 6.25 mg/kg | 2000 to 3000 mg/kg | 
3 | Cc1c(-c2nnn[nH]2)c(=O)oc2c(Cl)cccc12 [Compound I, reference compound] |  |  | minimal effective dose [1, 6]: 6.25 mg/kg; LD50 at 144 h [2, 7]: 1040 mg/kg
4 | CCCCCCCCCCCCOc1cccc2cc(-c3nnn[nH]3)c(=O)oc12 [Example 13, 8-n-Dodecyloxy-3-(1H-tetrazol-5-yl)coumarin] | 6.25 mg/kg | 2000 to 3000 mg/kg | 
5 | O=c1oc2ccccc2cc1-c1nnn[nH]1 |  |  | antiallergic activity [3]: stronger antiallergic activity
6 | CCCOc1cc(C)cc2cc(-c3nnn[nH]3)c(=O)oc12 [Example 21, 6-Methyl-8-n-propoxy-3-(1H-tetrazol-5-yl)coumarin] | 1.56 mg/kg | 1000 to 2000 mg/kg | 
7 | Cc1cc(OC(C)C)c2oc(=O)c(-c3nnn[nH]3)cc2c1 [Example 22, 8-Isopropoxy-6-methyl-3-(1H-tetrazol-5-yl)coumarin] |  | 2200 mg/kg | minimal effective dose [1, 6]: 1.56 mg/kg; minimal effective dose ([1]; read-out: MED (minimum effect dose)): 1.56 mg/kg; LD50 at 144 h [2, 7]: 2200 mg/kg
8 | COc1ccc2cc(-c3nnn[nH]3)c(=O)oc2c1C [Example 24, 7-Methoxy-8-methyl-3-(1H-tetrazol-5-yl)coumarin] | 6.25 mg/kg | 300 to 1000 mg/kg | 
9 | CCOc1cc2oc(=O)c(-c3nnn[nH]3)cc2cc1CC=C(C)C [Example 29, 7-Ethoxy-6-(3-methyl-2-butenyl)-3-(1H-tetrazol-5-yl)coumarin] | 12.5 mg/kg | 500 to 1000 mg/kg | 
10 | CCCCOc1cccc2cc(-c3nnn[nH]3)c(=O)oc12 [Example 31, Sodium salt of 8-n-butoxy-3-(1H-tetrazol-5-yl)coumarin] |  |  | MED (minimum effect dose) ([1]; Table 3, oral 30 minutes before antigen challenge, rats, lowest dose significantly decreasing leaked dye vs control): 1.56 mg/kg; LD50 (mice): 2470 mg/kg
11 | CC(C)CCOc1cccc2cc(-c3nnn[nH]3)c(=O)oc12 [Example 9, 8-Isopentyloxy-3-(1H-tetrazol-5-yl)coumarin] | 0.39 mg/kg | 1000 to 2000 mg/kg | 
12 | COc1cccc2cc(-c3nnn[nH]3)c(=O)oc12 [Example 3, 8-Methoxy-3-(1H-tetrazol-5-yl)coumarin] | 6.25 mg/kg | 2000 to 3000 mg/kg | 
13 | COc1cc2cc(-c3nnn[nH]3)c(=O)oc2cc1C [Example 25, 6-Methoxy-7-methyl-3-(1H-tetrazol-5-yl)coumarin] | 12.5 mg/kg | 500 to 1000 mg/kg | 
14 | CCCCCCCCCCCCCCCCCCOc1cccc2cc(-c3nnn[nH]3)c(=O)oc12 [Example 15, 8-n-Octadecyloxy-3-(1H-tetrazol-5-yl)coumarin] | 6.25 mg/kg | 2000 to 3000 mg/kg | 
15 | C=CCOc1cc(C)cc2cc(-c3nnn[nH]3)c(=O)oc12 [Example 26, 8-Allyloxy-6-methyl-3-(1H-tetrazol-5-yl)coumarin] | 1.56 mg/kg | 2000 to 3000 mg/kg | 
16 | C=CCOc1cccc2cc(-c3nnn[nH]3)c(=O)oc12 [Example 16, 8-Allyloxy-3-(1H-tetrazol-5-yl)coumarin] | 1.56 mg/kg | 2000 to 3000 mg/kg | 
17 | CCc1cc2cc(-c3nnn[nH]3)c(=O)oc2cc1OC [Example 23, 6-Ethyl-7-methoxy-3-(1H-tetrazol-5-yl)coumarin] | 1.56 mg/kg | 500 to 1000 mg/kg | 
